Source: US11926596B2, “Inhibitors of Rho associated coiled-coil containing protein kinase” (KADMON CORPORATION, LLC, priority 2017, dated 2024)

Legend:
[1] = target: T1, recombinant ROCK2 (amino acids 1-552) (Homo sapiens, UniProt O75116); experiment: Z'-lyte kinase assay, ROCK2; format: biochemical; conditions: for inhibition at 3 µM / inhibition at 1 µM / inhibition at 0.5 µM: read-out: ROCK2 % inh
T1 construct: ROCK2 (amino acids 1-552) proteins were purchased from ThermoFisher Scientific; purchased ThermoFisher Scientific
T1 sequence (O75116 1-552): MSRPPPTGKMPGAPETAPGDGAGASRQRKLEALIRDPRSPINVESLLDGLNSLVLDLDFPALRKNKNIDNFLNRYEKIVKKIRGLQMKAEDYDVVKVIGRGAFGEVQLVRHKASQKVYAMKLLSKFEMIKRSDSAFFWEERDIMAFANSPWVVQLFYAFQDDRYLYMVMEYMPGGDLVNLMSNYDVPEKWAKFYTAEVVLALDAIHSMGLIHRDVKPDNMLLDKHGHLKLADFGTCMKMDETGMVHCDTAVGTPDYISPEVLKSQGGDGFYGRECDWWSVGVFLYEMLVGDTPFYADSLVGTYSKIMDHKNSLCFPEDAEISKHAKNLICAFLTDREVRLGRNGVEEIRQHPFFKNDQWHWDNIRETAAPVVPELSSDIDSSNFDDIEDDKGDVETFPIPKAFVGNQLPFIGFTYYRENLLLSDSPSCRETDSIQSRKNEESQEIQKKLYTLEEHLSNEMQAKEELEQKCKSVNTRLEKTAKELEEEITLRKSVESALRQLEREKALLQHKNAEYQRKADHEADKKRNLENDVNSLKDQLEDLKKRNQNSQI
Protocol: (§1) Determination of compounds ROCK inhibitory activity in vitro (Z'lyte assay): recombinant ROCK1 (amino acids 1-535) and ROCK2 (amino acids 1-552) proteins were purchased from ThermoFisher Scientific. Compounds activities were measured by Z′-lyte kinase kit (ThermoFisher Scientific) and IC50s were calculated.
(§2) Table 2, below, provides in vitro and cellular inhibition of ROCKs by compounds of the invention. Compounds activities were measured by Z′-lyte kinase kit (ThermoFisher Scientific). […] IC50s were calculated using the GraphPad Prism software with kinase activities data that were collected from points 9 serial dilution of compounds treatment. The ROCK inhibition in A7R5 cells and NIH3T3 (Acta2-Luc) cells was performed as described above.

[2] = test system: phospho-myosin light chains (ppMlc, Thr18/Ser19) in A7R5 cells; experiment: A7R5 in-cell ELISA, phospho-myosin light chain; format: cell-based, rat; conditions: for IC50 / inhibition at 1 µM / inhibition at 10 µM: Rattus norvegicus, A7R5 cells; for IC50: 1.5 h, 90 min, read-out: pMLC IC50 A7R5; for inhibition at 1 µM / inhibition at 10 µM: read-out: pMLC % inh A7R5; for cellular ROCK inhibition compared with Comparative Example 2: phosphorylation of the ROCK target pMLC in A7R5 cells
Protocol: Determination of compounds ROCK inhibitory activity in A7R5 cells: rat aortic smooth muscle cell line A7R5 cells were maintained and treated in DMEM medium with 10% of fetal bovine serum. Cells were seeded with density of 5,000 cells/well in 96-well plates for 24 hours and subsequently treated 90 min with testing compounds. Cells were then fixed and processed according to the In-Cell ELISA Colorimetric Detection Kit manual (Thermo Scientific). Cellular phospho-myosin light chains (ppMlc, Thr18/Ser19) levels were determined after treatments of DMSO control or test compounds using the In-Cell ELISA kit. The percent inhibition rate was calculated by applying the data obtained with 1 μM (or 10 μM) compound treatment to the formula, [1-(compound/DMSO)]×100%. ppMlc data obtained with 9 points 2-fold serial dilution of compounds were applied to the nonlinear regression curve fit function of the GraphPad Prism software to calculate the In cell IC50s.
A7R5 cells were treated with 9 points 2 fold serial dilution of compounds and ppMlc (T18/S19) levels were determined in order to calculate cellular IC50s of the compounds.
Two steps of measurements were adopted for pMLC/A7R5 IC50. Percent inhibition rates were calculated with a single dose (1 μM or 10 μM) compounds treatment to screen for active compounds and then cellular IC50s were measured only in compounds that have over 50% of inhibition rates.

[3] = target: T2, recombinant ROCK1 (amino acids 1-535) (Homo sapiens, UniProt Q13464); experiment: Z'-lyte kinase assay, ROCK1; format: biochemical; conditions: for inhibition at 3 µM / inhibition at 0.5 µM: read-out: ROCK1 % inh
T2 construct: recombinant ROCK1 (amino acids 1-535) and ROCK2; purchased ThermoFisher Scientific
T2 sequence (Q13464 1-535): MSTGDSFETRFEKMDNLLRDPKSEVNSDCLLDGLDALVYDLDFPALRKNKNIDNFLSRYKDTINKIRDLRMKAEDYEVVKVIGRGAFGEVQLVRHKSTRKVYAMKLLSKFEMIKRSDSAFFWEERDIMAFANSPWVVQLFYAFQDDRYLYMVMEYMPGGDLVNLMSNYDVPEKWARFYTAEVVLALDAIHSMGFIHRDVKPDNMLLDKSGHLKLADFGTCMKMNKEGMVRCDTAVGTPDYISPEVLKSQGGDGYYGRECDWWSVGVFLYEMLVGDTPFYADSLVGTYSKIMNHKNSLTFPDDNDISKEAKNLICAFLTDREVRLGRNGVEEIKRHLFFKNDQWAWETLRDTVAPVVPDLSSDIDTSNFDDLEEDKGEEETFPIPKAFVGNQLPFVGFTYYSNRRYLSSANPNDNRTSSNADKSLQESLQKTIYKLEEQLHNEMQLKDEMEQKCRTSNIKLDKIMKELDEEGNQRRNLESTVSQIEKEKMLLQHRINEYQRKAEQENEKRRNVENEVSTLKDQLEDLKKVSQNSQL
Protocol: as §1, §2

SMILES	inhibition at 3 µM [1] [%]	IC50 [2] [nM]	inhibition at 3 µM [3] [%]	IC50 [1] [nM]	other results
NC(C(=O)Nc1ccc2[nH]ncc2c1)c1ccc(Cl)cc1 (stereo not drawn) [Comp2, reference compound]	97.5	4410	92.2		
NC(C(=O)Nc1ccc2[nH]ncc2c1)c1ccccc1 (stereo not drawn) [Comp3, reference compound]	97.4	10900	91.5		
COc1ccc(C(N)C(=O)Nc2ccc3[nH]ncc3c2)cc1 (stereo not drawn) [Comp4, reference compound]		6160	95.8		inhibition at 1 µM [1]: 96.5%
Cc1ccc(C(N)C(=O)Nc2ccc3[nH]ncc3c2)cc1 (stereo not drawn) [Comp5, reference compound]			99	33	inhibition at 1 µM [1]: 96.2%; IC50 [3]: 1310 nM
NC(C(=O)Nc1ccc2[nH]ncc2c1)c1cccc(F)c1 (stereo not drawn) [Comp6, reference compound]	98.8	6990	99	41.8	IC50 [3]: 41.3 nM
NC(C(=O)Nc1ccc2[nH]ncc2c1)c1ccccc1F (stereo not drawn) [Comp7, reference compound]	100	18400	100	303	IC50 [3]: 166 nM
O=C(Nc1ccc2[nH]ncc2c1)C1CNc2ccccc2C1 (stereo not drawn) [Example 3, N-(1H-indazol-5-yl)-1,2,3,4-tetrahydroquinoline-3-carboxamide]	0		0		inhibition at 1 µM [2]: 25%
O=C(Nc1ccc2[nH]ncc2c1)C1Cc2ccccc2CN1 (stereo not drawn) [Example 4, N-(1H-indazol-5-yl)-1,2,3,4-tetrahydroisoquinoline-3-carboxamide]				> 1000	inhibition at 10 µM [2]: 18%; IC50 [3]: > 1000 nM
O=C(Nc1ccc2[nH]ncc2c1)C1NCCc2ccccc21 (stereo not drawn) [Example 5, N-(1H-indazol-5-yl)-1,2,3,4-tetrahydroisoquinoline-1-carboxamide]		35800		77	IC50 [3]: 38 nM
O=C(Nc1ccc2[nH]ncc2c1)C1NCc2ccccc21 (stereo not drawn) [Example 6, N-(1H-indazol-5-yl)isoindoline-1-carboxamide]				> 1000	inhibition at 10 µM [2]: 1%; IC50 [3]: 421 nM
CNC(C(=O)N(CCN(C)C)c1ccc2[nH]ncc2c1)c1cccc(OC)c1 (stereo not drawn) [Example 7, N-(2-(dimethylamino)ethyl)-N-(1H-indazol-5-yl)-2-(3-methoxyphenyl)-2-(methylamino)acetamide]				1630	inhibition at 1 µM [1]: 11%; inhibition at 10 µM [2]: 2%; inhibition at 0.5 µM [3]: 16%
O=C(Nc1ccc2[nH]ncc2c1)C1CNCc2ccccc21 (stereo not drawn) [Example 8, N-(1H-indazol-5-yl)-1,2,3,4-tetrahydroisoquinoline-4-carboxamide]		2620			inhibition at 1 µM [1]: 76.7%
CC1NC(C(=O)Nc2ccc3[nH]ncc3c2)c2ccccc21 (stereo not drawn) [Example 9, N-(1H-indazol-5-yl)-3-methylisoindoline-1-carboxamide]					inhibition at 1 µM [2]: 4%
O=C(Nc1ccc2[nH]ncc2c1)C1CCCN1 (stereo not drawn) [Example 10, N-(1H-indazol-5-yl)pyrrolidine-2-carboxamide]					inhibition at 1 µM [2]: 1%
O=C(Nc1ccc2[nH]ncc2c1)C1CCNC1 (stereo not drawn) [Example 11, N-(1H-indazol-5-yl)pyrrolidine-3-carboxamide]					inhibition at 1 µM [2]: 1%
O=C(Nc1ccc2[nH]ncc2c1)[C@@H]1CC[C@H](c2ccccc2)N1 [Example 12, (2S,5R)-N-(1H-indazol-5-yl)-5-phenylpyrrolidine-2-carboxamide]					inhibition at 1 µM [2]: 1%
O=C(Nc1ccc2[nH]ncc2c1)C1CCCCN1 (stereo not drawn) [Example 13, N-(1H-indazol-5-yl)piperidine-2-carboxamide]					inhibition at 1 µM [2]: 11%

SMILES	inhibition at 3 µM [1] [%]	IC50 [2] [nM]	inhibition at 3 µM [3] [%]	IC50 [1] [nM]	other results
CCNC(C(=O)Nc1ccc2[nH]ncc2c1)c1ccc(Cl)cc1 (stereo not drawn) [Example 17, 2-(4-chlorophenyl)-2-(ethylamino)-N-(1H-indazol-5-yl)acetamide]	96.3	556	93.3	248	cellular ROCK inhibition compared with Comparative Example 2 [2]: enhanced; IC50 [3]: < 10 nM
CC(C)NC(C(=O)Nc1ccc2[nH]ncc2c1)c1ccc(Cl)cc1 (stereo not drawn) [Example 18, 2-(4-chlorophenyl)-N-(1H-indazol-5-yl)-2-(isopropylamino)acetamide]	94.1	2510	89.6		cellular ROCK inhibition compared with Comparative Example 2 [2]: enhanced
CNC(C(=O)Nc1ccc2[nH]ncc2c1)c1ccc(F)cc1 (stereo not drawn) [Example 19, 2-(4-fluorophenyl)-N-(1H-indazol-5-yl)-2-(methylamino)acetamide]	96.6	1600	21.4	160	IC50 [3]: 173 nM
CC(C)NC(C(=O)Nc1ccc2[nH]ncc2c1)c1ccc(F)cc1 (stereo not drawn) [Example 20, 2-(4-fluorophenyl)-N-(1H-indazol-5-yl)-2-(isopropylamino)acetamide]	94.6	2510	18.4	152	IC50 [3]: 561 nM
CCNC(C(=O)Nc1ccc2[nH]ncc2c1)c1ccccc1 (stereo not drawn) [Example 21, 2-(ethylamino)-N-(1H-indazol-5-yl)-2-phenylacetamide]	95.8	2390	91.5		
CC(C)NC(C(=O)Nc1ccc2[nH]ncc2c1)c1ccccc1 (stereo not drawn) [Example 22, N-(1H-indazol-5-yl)-2-(isopropylamino)-2-phenylacetamide]	96.7	1800	94.3		
CNC(C(=O)Nc1ccc2[nH]ncc2c1)c1ccc(-c2ccccc2F)cc1 (stereo not drawn) [Example 33, 2-(2′-fluoro-[1,1′-biphenyl]-4-yl)-N-(1H-indazol-5-yl)-2-(methylamino)acetamide]					inhibition at 1 µM [1]: 66.5%; inhibition at 10 µM [2]: 48%
COc1cccc(C(NCCN(C)C)C(=O)Nc2ccc3[nH]ncc3c2)c1 (stereo not drawn) [Example 34, 2-((2-(dimethylamino)ethyl)amino)-N-(1H-indazol-5-yl)-2-(3-methoxyphenyl)acetamide]				438	inhibition at 10 µM [2]: 49%
CNC(C(=O)Nc1ccc2[nH]ncc2c1)c1ccccc1OC (stereo not drawn) [Example 35, N-(1H-indazol-5-yl)-2-(2-methoxyphenyl)-2-(methylamino)acetamide]					inhibition at 1 µM [1]: 71%; inhibition at 1 µM [2]: 16%
CCOc1ccc(C(NC)C(=O)Nc2ccc3[nH]ncc3c2)cc1 (stereo not drawn) [Example 43, 2-(4-ethoxyphenyl)-N-(1H-indazol-5-yl)-2-(methylamino)acetamide]				73	inhibition at 1 µM [1]: 98%; inhibition at 10 µM [2]: 4%
CNC(C(=O)Nc1ccc2[nH]ncc2c1)c1ccc(OC(C)C)cc1 (stereo not drawn) [Example 44, N-(1H-indazol-5-yl)-2-(4-isopropoxyphenyl)-2-(methylamino)acetamide]				455	inhibition at 10 µM [2]: 42%
CNC(C(=O)Nc1ccc2[nH]ncc2c1)c1ccc(-c2ccc(OC)cc2)cc1 (stereo not drawn) [Example 45, N-(1H-indazol-5-yl)-2-(4′-methoxy-[1,1′-biphenyl]-4-yl)-2-(methylamino)acetamide]					inhibition at 1 µM [1]: 22%; inhibition at 10 µM [2]: 4%
COCCNC(C(=O)Nc1ccc2[nH]ncc2c1)c1cccc(OC)c1 (stereo not drawn) [Example 46, N-(1H-indazol-5-yl)-2-((2-methoxyethyl)amino)-2-(3-methoxyphenyl)acetamide]					inhibition at 1 µM [1]: 67%; inhibition at 10 µM [2]: 27%
CNC(C(=O)Nc1ccc2[nH]ncc2c1)c1ccc(F)c(OC)c1 (stereo not drawn) [Example 48, 2-(4-fluoro-3-methoxyphenyl)-N-(1H-indazol-5-yl)-2-(methylamino)acetamide]				71	inhibition at 0.5 µM [1]: 76%; inhibition at 0.5 µM [3]: 87%
CCNC(C(=O)Nc1ccc2[nH]ncc2c1)c1cccc(C)c1 (stereo not drawn) [Example 49, 2-(ethylamino)-N-(1H-indazol-5-yl)-2-(m-tolyl)acetamide]				87	inhibition at 0.5 µM [1]: 76%; inhibition at 0.5 µM [3]: 88%
CNC(C(=O)Nc1ccc2[nH]ncc2c1)c1cccc(OC(F)(F)F)c1 (stereo not drawn) [Example 50, N-(1H-indazol-5-yl)-2-(methylamino)-2-(3-(trifluoromethoxy)-phenyl)acetamide]				21	inhibition at 0.5 µM [1]: 93%; inhibition at 0.5 µM [3]: 93%
